Measured values from ChEMBL document CHEMBL3868586, “Mansoins C-F, Oligomeric Flavonoid Glucosides Isolated from Mansoa hirsuta Fruits with Potential Anti-inflammatory Activity” (J Nat Prod, 2016).
Activity calls are given as the source filed them. The rule behind the calls is not given here.

Key:
Transcription factor p65 [1] = target: T1, Transcription factor p65 (Homo sapiens, UniProt Q04206); assay: Inhibition of NF-kappa-B p65 in human THP1 cells assessed as suppression of LPS-induced TNFalpha release preincubated for 3 hrs followed by LPS stimulation by ELISA; assay type: cell-based, THP-1
T1 sequence (Q04206 whole entry): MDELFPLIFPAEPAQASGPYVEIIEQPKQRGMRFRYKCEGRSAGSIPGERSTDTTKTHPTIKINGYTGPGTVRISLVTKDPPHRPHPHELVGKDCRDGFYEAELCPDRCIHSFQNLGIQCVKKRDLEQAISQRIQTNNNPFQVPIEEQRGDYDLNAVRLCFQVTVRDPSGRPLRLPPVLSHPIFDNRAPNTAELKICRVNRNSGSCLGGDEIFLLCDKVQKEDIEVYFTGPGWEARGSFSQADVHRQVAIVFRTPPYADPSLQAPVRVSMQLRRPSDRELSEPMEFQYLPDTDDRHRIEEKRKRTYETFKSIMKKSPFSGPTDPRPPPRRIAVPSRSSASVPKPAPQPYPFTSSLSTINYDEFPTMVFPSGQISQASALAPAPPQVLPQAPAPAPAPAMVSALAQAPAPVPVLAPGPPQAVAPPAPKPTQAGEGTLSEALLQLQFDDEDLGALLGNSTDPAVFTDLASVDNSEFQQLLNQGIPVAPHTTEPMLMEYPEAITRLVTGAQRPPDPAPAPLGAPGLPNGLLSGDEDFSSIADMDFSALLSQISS

Transcription factor p65 [2] = target: T1, Transcription factor p65; assay: Inhibition of LPS-induced NF-kappa-B p65 phosphorylation in human THP1 cells at 50 uM preincubated for 3 hrs followed by LPS stimulation for 18 hrs; conditions: THP-1
Transcription factor p65 [3] = target: T1, Transcription factor p65; assay: Inhibition of NF-kappa-B p65 in human THP1 cells assessed reduction in phosphorylated p65 levels at 50 uM preincubated for 3 hrs followed by LPS stimulation after 18 hrs by Western blot analysis; assay type: cell-based; conditions: THP-1

Structure (SMILES) | IC50 (Transcription factor p65 [1]) [µM] | inhibition (Transcription factor p65 [2]) | inhibition (Transcription factor p65 [3])
O=C1C[C@@H](c2ccc(O)c(O[C@@H]3O[C@H](CO)[C@@H](O)[C@H](O)[C@H]3O)c2)Oc2c1c(O)c([C@H](CCc1ccc(O[C@@H]3O[C@H](CO)[C@@H](O)[C@H](O)[C@H]3O)cc1)c1ccc(O[C@@H]3O[C@H](CO)[C@@H](O)[C@H](O)[C@H]3O)cc1O[C@@H]1O[C@H](CO)[C@@H](O)[C@H](O)[C@H]1O)c(O)c2[C@@H](CCc1ccc(O[C@@H]2O[C@H](CO)[C@@H](O)[C@H](O)[C@H]2O)cc1)c1ccc(O[C@@H]2O[C@H](CO)[C@@H](O)[C@H](O)[C@H]2O)cc1O[C@@H]1O[C@H](CO)[C@@H](O)[C@H](O)[C@H]1O | 19.3 | Active | Active
O=C1C[C@@H](c2ccc(O)c(O[C@@H]3O[C@H](CO)[C@@H](O)[C@H](O)[C@H]3O)c2)Oc2c1c(O)c([C@H](CCc1ccc(O)cc1)c1ccc(O)cc1O[C@@H]1O[C@H](CO)[C@@H](O)[C@H](O)[C@H]1O)c(O)c2[C@@H](CCc1ccc(O)cc1)c1ccc(O)cc1O[C@@H]1O[C@H](CO)[C@@H](O)[C@H](O)[C@H]1O |  | Active | Active
